The values that follow come from ChEMBL document CHEMBL1138410, “SAR studies of 3-arylpropionic acids as potent and selective agonists of sphingosine-1-phosphate receptor-1 (S1P1) with enhanced pharmacokinetic properties” (Bioorg Med Chem Lett, 2007).

Where “and” joins values, the source holds several entries; their conditions need not be identical. Equal values may be shown once.

Series [1] in a line: (§1) Half life in Sprague-Dawley rat at 1.0 mg/kg, iv or 2.0 mg/kg, po. It is filed as ADME, organism-based. To be noted: Sprague-Dawley, in vivo.
Series [2] in a line: (§2) Volume of distribution at steady state in Sprague-Dawley rat at 1.0 mg/kg, iv or 2.0 mg/kg, po. The format is ADME, organism-based. To be noted: Sprague-Dawley, in vivo, read-out: Vdss.
Series [3] can be described thus: Plasma clearance in Sprague-Dawley rat at 1.0 mg/kg, iv or 2.0 mg/kg, po. It is filed as ADME, organism-based.
Series [4] deals with Sphingosine 1-phosphate receptor 5 (Homo sapiens, UniProt Q9H228). The experiment in a line: […] of [35S]GTP-gamma-S from human S1P5 receptor expressed in CHO cells. The format is functional, cell-based. In general terms: In a radioligand displacement assay an active substance lowers the binding of a labelled ligand.
A further series concerns Mus musculus. The experiment in a line: Effect on peripheral lymphocyte lowering in orally dosed mouse. The format is functional.
Series [5] addresses T1, Sphingosine 1-phosphate receptor 4 (Homo sapiens, UniProt O95977).
T1 sequence (O95977 whole entry): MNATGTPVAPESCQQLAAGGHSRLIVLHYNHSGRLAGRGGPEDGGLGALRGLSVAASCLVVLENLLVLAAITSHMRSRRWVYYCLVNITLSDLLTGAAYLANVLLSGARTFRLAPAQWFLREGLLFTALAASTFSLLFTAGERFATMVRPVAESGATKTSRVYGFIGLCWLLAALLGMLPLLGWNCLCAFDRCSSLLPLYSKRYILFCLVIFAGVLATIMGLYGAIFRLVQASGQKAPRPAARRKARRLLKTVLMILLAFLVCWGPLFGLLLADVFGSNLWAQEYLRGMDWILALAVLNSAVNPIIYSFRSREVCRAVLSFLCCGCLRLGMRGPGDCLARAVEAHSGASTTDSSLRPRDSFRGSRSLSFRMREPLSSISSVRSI
The experiment in a line: Displacement of [33P]S1P from human S1P4 receptor expressed in CHO cells. It is filed as cell-based.

Series [6] deals with Sphingosine 1-phosphate receptor 3 (Homo sapiens, UniProt Q99500). The experiment in a line: […] of [35S]GTP-gamma-S from human S1P3 receptor expressed in CHO cells. The format is functional, cell-based.
Series [7] addresses Sphingosine 1-phosphate receptor 1 (Homo sapiens, UniProt P21453). The experiment in a line: […] of [35S]GTPgammaS from human S1P1 receptor expressed in CHO cells. The format is functional, cell-based.
Series [8] in a line: (§3) Bioavailability in Sprague-Dawley rat at 2.0 mg/kg, po. The format is ADME, organism-based. To be noted: Sprague-Dawley, in vivo.
Series [9] concerns the target Sphingosine 1-phosphate receptor 2 (Homo sapiens, UniProt O95136). The experiment in a line: Displacement of [33P]S1P from human S1P2 receptor expressed in CHO cells. The format is cell-based.
Series [10] deals with Rattus norvegicus. The description is as §1. It is filed as ADME, organism-based. To be noted: in vivo.
In series [11] the test system is Rattus norvegicus. The series is described as §2. The format is ADME, organism-based. To be noted: in vivo.
Series [12] relates to Rattus norvegicus. The description is as §3. It is filed as ADME, organism-based. To be noted: in vivo.
Setting [13] is: Mus musculus, po, read-out: ED50.

Sphingosine 1-phosphate receptor 3, sequence (Q99500 whole entry): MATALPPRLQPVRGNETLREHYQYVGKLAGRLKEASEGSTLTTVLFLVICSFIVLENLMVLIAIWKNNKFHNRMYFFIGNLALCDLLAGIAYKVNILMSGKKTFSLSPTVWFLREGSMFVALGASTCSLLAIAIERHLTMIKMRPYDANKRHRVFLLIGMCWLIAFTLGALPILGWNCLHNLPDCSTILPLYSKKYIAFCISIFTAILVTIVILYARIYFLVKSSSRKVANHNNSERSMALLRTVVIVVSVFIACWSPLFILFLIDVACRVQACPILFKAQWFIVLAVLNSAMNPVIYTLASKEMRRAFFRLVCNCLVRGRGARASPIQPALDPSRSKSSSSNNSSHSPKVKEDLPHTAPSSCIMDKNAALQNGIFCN
Sphingosine 1-phosphate receptor 1, sequence (P21453 whole entry): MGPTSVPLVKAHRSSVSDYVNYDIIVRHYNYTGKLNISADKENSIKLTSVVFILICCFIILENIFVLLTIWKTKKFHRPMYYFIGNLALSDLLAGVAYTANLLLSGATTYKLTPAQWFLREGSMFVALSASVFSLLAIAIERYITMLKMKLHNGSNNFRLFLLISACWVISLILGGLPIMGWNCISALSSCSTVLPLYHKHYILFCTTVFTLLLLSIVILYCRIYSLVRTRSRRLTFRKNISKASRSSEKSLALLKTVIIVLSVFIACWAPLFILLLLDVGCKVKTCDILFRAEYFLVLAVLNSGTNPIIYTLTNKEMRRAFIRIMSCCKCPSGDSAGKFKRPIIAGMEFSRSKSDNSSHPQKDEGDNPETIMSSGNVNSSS
Sphingosine 1-phosphate receptor 2, sequence (O95136 whole entry): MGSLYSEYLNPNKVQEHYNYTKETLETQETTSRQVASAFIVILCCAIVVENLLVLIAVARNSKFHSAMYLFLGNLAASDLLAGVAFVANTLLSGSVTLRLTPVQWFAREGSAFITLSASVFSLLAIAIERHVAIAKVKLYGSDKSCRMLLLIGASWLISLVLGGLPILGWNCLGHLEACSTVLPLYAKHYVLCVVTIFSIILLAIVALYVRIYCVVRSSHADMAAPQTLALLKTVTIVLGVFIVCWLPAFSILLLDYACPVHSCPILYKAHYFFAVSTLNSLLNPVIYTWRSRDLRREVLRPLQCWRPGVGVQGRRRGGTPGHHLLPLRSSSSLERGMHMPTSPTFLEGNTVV
Sphingosine 1-phosphate receptor 5, sequence (Q9H228 whole entry): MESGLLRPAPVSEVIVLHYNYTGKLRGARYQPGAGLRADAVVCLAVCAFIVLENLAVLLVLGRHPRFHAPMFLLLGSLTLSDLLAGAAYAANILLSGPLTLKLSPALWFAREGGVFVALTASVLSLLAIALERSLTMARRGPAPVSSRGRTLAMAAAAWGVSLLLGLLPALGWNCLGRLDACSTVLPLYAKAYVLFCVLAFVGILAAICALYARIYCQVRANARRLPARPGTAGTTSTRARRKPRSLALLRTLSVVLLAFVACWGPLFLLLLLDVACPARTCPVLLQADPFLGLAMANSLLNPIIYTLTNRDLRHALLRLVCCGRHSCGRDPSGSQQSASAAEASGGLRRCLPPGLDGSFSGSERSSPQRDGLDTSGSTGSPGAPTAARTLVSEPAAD

With `Cc1nc(CCC(=O)O)ccc1-c1noc(-c2ccc(OC(C)C)c(C#N)c2)n1`, the half-life in [1] is 2.4 h. Further, the Vd in series [2] came out at 0.3 L/kg. The compound also came in with a clearance in [3] of 1.2 mL/min/kg. Moreover, the results for the EC50 in series [4], in series [6] and in series [7] were 28.6 nM, 2760 nM and 0.44 nM, respectively. Besides, the ED50 in the series on Mus musculus (setting [13]) was determined as 0.2 mg/kg. The concentration for half-maximal inhibition (IC50) in [5] and in series [9] was over 10000 nM each time. Further, the bioavailability in series [8] came to 93%.

`Cc1cc(CC(C)C(=O)O)ccc1-c1noc(-c2ccc(OC(C)C)c(C(F)(F)F)c2)n1` (stereo not drawn): in [1], the half-life is 1.7 h. Besides, in series [2], the Vd amounted to 1.5 L/kg. For the same compound, the clearance in series [3] worked out at 7 mL/min/kg. The results for the EC50 in series [4], in series [6] and in series [7] were 9.9 nM, 400 nM and 0.3 nM, respectively. In the series with Mus musculus (setting [13]), the ED50 was 0.1 mg/kg. Further, the IC50 in series [5] and in series [9] was over 10000 nM each time. The bioavailability in [8] turned out to be 82%.

On to `Cc1cc(CCC(=O)O)ccc1-c1noc(-c2ccc(OC(C)C)c(C#N)c2)n1`, for which the ED50 in the series on Mus musculus (setting [13]) amounted to 0.1 mg/kg. Also, the IC50 in series [5] and in series [9] was over 10000 nM each time. Besides, the EC50 in series [7] worked out at 0.08 nM.

Compound `Cc1cc([C@@H]2C[C@H]2C(=O)O)ccc1-c1noc(-c2ccc(OC(C)C)c(C(F)(F)F)c2)n1` showed a half-life in series [1] of 6.3 h. For the same compound, the Vd in [2] was 1.1 L/kg. The clearance in series [3] worked out at 2.4 mL/min/kg. For the same compound, the EC50 amounted to 5.1 nM in series [4] and 123 nM in series [6]. Besides, the ED50 with Mus musculus (setting [13]) worked out at 0.2 mg/kg. Also, the IC50 in series [5] and in [9] was over 10000 nM in each case. In addition, the bioavailability in series [8] amounted to 88%.

In series [1], `Cc1cc(C(C)CC(=O)O)ccc1-c1noc(-c2ccc(OC(C)C)c(C(F)(F)F)c2)n1` (stereo not drawn) showed a half-life of 3.1 h. Also, the Vd in series [2] is 0.6 L/kg. This compound also had a clearance in [3] of 2.9 mL/min/kg. In addition, the EC50 in series [4] stood at 3.9 nM; in series [6] it was 184 nM; in series [7] it was 0.12 nM. In the series on Mus musculus (setting [13]), the ED50 worked out at 0.1 mg/kg. The IC50 in series [5] and in [9] was over 10000 nM each time. In addition, in series [8], the bioavailability came to 100%.

Consider `Cc1cc([C@@H]2C[C@H]2C(=O)O)ccc1-c1noc(-c2ccc(OC(C)C)c(C#N)c2)n1`, for which the half-life in series [1] is 4.9 h. In the series with Rattus norvegicus [10], this compound gave a t1/2 of 5.9 h. Moreover, the Vdss in the series on Rattus norvegicus [11] is 1 L/kg and 0.4 L/kg. In addition, the ED50 in the series on Mus musculus worked out at 0.2 mg/kg; in the series with Mus musculus (setting [13]) it was 0.3 mg/kg. The IC50 in series [5] and in series [9] was over 10000 nM in each case. Further, the EC50 is 2660 nM and 2600 nM and > 10000 nM in series [6]; 0.93 nM and 0.31 nM in series [7]. The same compound registered a bioavailability in [8] of 84%. For the same compound, the F in the series with Rattus norvegicus [12] was 90%.

`Cc1cc([C@H]2C[C@H]2C(=O)O)ccc1-c1noc(-c2ccc(OC(C)C)c(C#N)c2)n1` gave a half-life in series [1] of 7.4 h. Besides, the Vd in [2] came out at 0.7 L/kg. Besides, the clearance in [3] is 1.2 mL/min/kg. Besides, the EC50 was 37.7 nM in series [4], over 1000 nM in series [6] and 0.8 nM in [7]. For the same compound, the ED50 in the series with Mus musculus (setting [13]) came out at 0.7 mg/kg. For the same compound, the IC50 in series [5] and in series [9] was over 10000 nM in each case. This compound also yielded a bioavailability in series [8] of 89%.

For the compound `Cc1cc(CCC(=O)O)ccc1-c1noc(-c2ccc(OC(C)C)c(C(F)(F)F)c2)n1`, the ED50 with Mus musculus (setting [13]) was 0.3 mg/kg. The IC50 in series [5] and in series [9] was over 10000 nM each time. This compound also had an EC50 in series [7] of 0.08 nM.

The term half-life denotes the time needed for the level to fall by half in the phase considered. Low readings indicate fast loss, high ones slow loss. What is called EC50 is the midpoint of the concentration-response curve. Lower therefore signals a more potent agent. In general, ED50 refers to the midpoint of the dose-response relation. One may read the IC50 as the point on the concentration scale where inhibition reaches its midpoint. As usually defined, the bioavailability is dose-corrected exposure relative to a reference, in per cent. Read a high bioavailability as good availability.
